Reference: patent US4613618A, “Method for treating disorders of lipid metabolism using benzene sulfonamides” (Choay S.A., priority 1981, dated 1986)

Tests used:
[1] = system: atherosclerosis inducing diet (cholesterol, cholic acid, vitamine D2); assay: Atherosclerosis inducing diet: biochemical exams; format: in vivo, Wistar female rats; parameters: CHOLESTEROL T, % reduction with respect to the control diet / CHOLESTEROL HDL, % with respect to the control diet / CHOLESTEROL LDL, % reduction with respect to the control diet / TRIGLYCERIDES, % reduction with respect to the control diet: concentration or dose not given beside the values
Method: (§1) In a second experimental series, tha activity of certain products according to the invention were tested on animals which had received an atherosclerosis inducing diet for a long period.
(§2) The test was carried out on Wistar female rats, of weight about 160-180 g.
(§3) The animals received food coming from the National Nutrition plant of Villemoisson-sur-Orge, France, and denoted by the reference UAR AO3, enriched in cholesterol (0.5%) and in cholic acid (0.5%).
(§4) After 15 days of the atherosclerosis inducing diet and whilst maintaining the animals on an atherosclerosis inducing diet, they were given orally for 4 days 250.000 iu/kg of vitamine D2 marketed under the name Sterogyl 25H, in solution in olive oil.
(§5) Then the products under study were administered for 4 weeks, from the end of the administration of the lesion-inducing agent.
At the end of the study, biochemical examinations were carried out on all the animals [total cholesterol, high density lipoprotein (HDL) and cholesterol low density lipoprotein (LDL), and triglycerides].
(§6) Then the pecentage reduction with respect to the diet controls and the score were calculated, that is to say the ratio of the intensity of the activity of the product tested with respect to that of the activity of clofibrate, reckoned as 1.
Table IX gives the detailed results of the biochemical examination:
(a) in % reduction with respect to the control die;
(b) as score, with respect to the reference product, clofibrate, the latter being counted as 1.

[2] = system: atherosclerosis lesions; assay: Atherosclerosis inducing diet: macroscopic exams (affected animals); format: in vivo, Wistar female rats
Method: as §1, §2, §3, §4, §5
(§7) At the end of the study, all the animals still alive were sacrificed, and various organs were removed, particularly the aorta, for histological study of the latter. Two criteria were examined: the number of atherosclerosis areas and the severity of the lesions.
as §6
Table X gives the results of macroscopic examinations:
(a) in % decrease in animals afflicted with lesions;
(b) as score with respect to the reference clofibrate, of which the score was counted as 1.

[3] = system: aorta; assay: Atherosclerosis inducing diet: microscopic observations (aorta, histology); format: in vivo, Wistar female rats; parameters: HISTOLOGICAL QUOTATION, percentage reduction with respect to the diet controls / NUMBER OF ATHEROSCLEROTIC AREAS, percentage reduction with respect to the diet controls: concentration or dose not given beside the values
Method: as §1, §2, §3, §4, §5, §7
Calculation of the figures was carried out in the following manner:
as regards the severity of the lesions, a quotation ranging from 0 for absence of a lesion to 5+ for the severest lesions was made, and this for each type of alteration concerned (increase of interlamellar spaces, interruption of elastic laminae, thickening of the elastic laminae, calcium deposition, mucopolysaccharide deposition); then all of the results per batch of animals were added;
as regards the number of atherosclerosis areas, by counting the latter and adding all the figures obtained per batch of animals.
as §6
Table XI gives the microscopic results with histological quotation as regards the severity of the lesions, and the number of atherosclerotic areas.

[4] = Toxicity of Compound No. 1 038, oral route, rats; format: in vivo; settings: rat, in vivo, po
Text: (§8) For Compound No. 1 038, the study of the toxicity has been carried out on rats and on mice to which the product has been administered by the oral route.
(§9) The results (expressed in g/kg) relative to LD50, LD0, and LD100 are gathered in the following table.

[5] = system: rats; assay: Toxicity of Compound No. 1 038, oral route, rats; format: in vivo
Text: as §8, §9

[6] = Toxicity of Compound No. 1 038, oral route, mice; format: in vivo; settings: mouse, in vivo, po
Text: as §8, §9

[7] = system: mice; assay: Toxicity of Compound No. 1 038, oral route, mice; format: in vivo
Text: as §8, §9

[8] = Subacute toxicity of compound No. 1 038; format: in vivo; settings: about one month; 150,500 and 1 000 mg/kg
[9] = Toxicity, general statements; settings: Compound No. 1 038: rats and mice, oral route; medicaments: general

O=C(O)CCCNS(=O)(=O)c1cccc(C(F)(F)F)c1 [Compound No. 1038, (trifluoromethyl-3 benzenesulfonylamino)-4 butyric acid]
TRIGLYCERIDES, % reduction with respect to the control diet ([1]; 4 weeks administration): -20,69% | CHOLESTEROL HDL, % with respect to the control diet ([1]; HDL, 4 weeks administration): +83,33% | CHOLESTEROL LDL, % reduction with respect to the control diet ([1]; LDL, 4 weeks administration): -58,26% | CHOLESTEROL HDL, Score with respect to clofibrate ([1]; clofibrate counted as 1): 0,80 | CHOLESTEROL LDL, Score with respect to clofibrate ([1]; clofibrate counted as 1): 1,05 | CHOLESTEROL T, Score with respect to clofibrate ([1]; clofibrate counted as 1): 1,06 | TRIGLYCERIDES, Score with respect to clofibrate ([1]; clofibrate counted as 1): 0,86 | CHOLESTEROL T, % reduction with respect to the control diet ([1]; total cholesterol, 4 weeks administration): -51,88% | % decrease in animals afflicted with lesions [2]: 33,33% | Score with respect to the reference clofibrate (animals afflicted with lesions) ([2]; clofibrate counted as 1): 1,83 | AFFECTED ANIMALS % ([2]; macroscopic exams, TEM-diet 100): 66,67% | NUMBER OF ATHEROSCLEROTIC AREAS, percentage reduction with respect to the diet controls [3]: 78,18% | NUMBER OF ATHEROSCLEROTIC AREAS ([3]; TEM-diet 160): 35% | HISTOLOGICAL QUOTATION, score with respect to clofibrate ([3]; clofibrate counted as 1): 1,06 | NUMBER OF ATHEROSCLEROTIC AREAS, score with respect to clofibrate ([3]; clofibrate counted as 1): 1,42 | HISTOLOGICAL QUOTATION, percentage reduction with respect to the diet controls ([3]; severity of the lesions): 66,31% | HISTOLOGICAL QUOTATION ([3]; severity of the lesions, TEM-diet 132): 44% | LD50 ([4]; female): 15500 mg/kg | LD50 ([4]; male): 13000 mg/kg | LD0 ([5]; female): 5000 mg/kg | LD100 ([5]; female): > 20000 mg/kg | LD0 ([5]; male): 5000 mg/kg | LD100 ([5]; male): 20000 mg/kg | LD50 ([6]; female): 6600 mg/kg | LD50 ([6]; male): 6000 mg/kg | LD0 ([7]; female): 5000 mg/kg | LD100 ([7]; female): 9000 mg/kg | LD0 ([7]; male): 4000 mg/kg | LD100 ([7]; male): 9000 mg/kg | therapeutic index [8]: very satisfactory | toxicity (in words) [9]: presents no toxicity
